Entries after “also recorded” stand apart in the source; their conditions may differ.
What was measured:
Assay type in all cases: in vivo, human
[1] = test system: adults with Fragile X Syndrome (FXS); test: RBANS list learning in AZD7325 clinical study; set-up: key to RBANS list learning, difference of least squares means, Estimate: Low - High / RBANS list learning, difference of least squares means, Estimate: Baseline - High: difference in raw score (number of words remembered); details: for RBANS_LL change: chronic
[2] = test system: adults with Fragile X Syndrome (FXS); test: Clinical response and adverse effects by peripheral FMRP status
Experimental: (§1) This study aims at investigating the safety, tolerability, and blood pharmacodynamics of treatment with oral administration of AZD7325 in adults with Fragile X Syndrome (FXS). This study also investigates measures of efficacy and biomarkers during treatment.
(§2) The treatment conditions are provided Table 2 below:
Peripheral levels FMRP proteins in the patients were measured by an immunoassay using an antibody specific to FMRP. A fair percentage of males with FXS show mosaicism or a mix of […] and mutation cells. FIG. 3. Peripheral blood FMRP levels from the study participants are shown in Table 4 below (measured using dried blood spot samples using Luminex® Assay; see Example 3 below). The levels of FMRP measured using dried blood spot as disclosed herein are estimated to be about 7 folds higher than the FMRP levels in the blood of the same patient.

[3] = test system: adults with Fragile X Syndrome (FXS); test: Aberrant Behavior Checklist (ABC / ABC-C subscales); details: for ABC_C_Subscale_1 Irritability / ABC_C_Subscale_2 Lethargy / ABC_C_Subscale_3 Stereotypy / ABC_C_Subscale_4 Hyperactivity / ABC_C_Subscale_5 Inappropriate Speech: undetectable FMRP males (n=5), mean ± SD
Description: Secondary Outcome Measures: • Change in the social withdrawal subscale score of the Aberrant Behavior Checklist (ABC) through the end of the study, approximately 12 weeks. The ABC is the gold standard parent/caregiver reported behavioral outcome measure for use in development disability clinical trials. • Change in the Pediatric Anxiety Rating Scale (PARS) through the end of the study, approximately 12 weeks. The PARS is the gold standard parent/caregiver reported anxiety outcome measure for use in Fragile X Syndrome clinical trials.
The Aberrant Behavior Checklist (ABC) is a standardized rating scale used for assessing problematic behavior designed for use in developmental disabilities, with validity for use in FXS (CITE). ABC-C is the original factor structure with 5 subscales: Irritability, Lethargy, Stereotypy, Hyperactivity, and Inappropriate Speech. See, e.g., Aman et al., J. Child Adolesc Psychopharmacol. 30(8):512-521 (2020), the relevant disclosures of which are incorporated by reference for the subject matter and purpose referenced herein. ABC was only assessed chronically (two weeks after treatment). Overall, no indication that ABC changed during chronic phase.

[4] = test system: adults with Fragile X Syndrome (FXS); test: RBANS list learning in AZD7325 clinical study; set-up: key to RBANS list learning, difference of least squares means, Estimate: Baseline - Low: difference in raw score (number of words remembered); key to RBANS-LL score: raw score = number of words remembered; higher is better; details: for RBANS-LL score: undetectable FMRP male subjects (n=5), mean ± SD
Description: as §1, §2
Table 5 below summarizes clinical measure RBANS List Learning scores from the 5 “undetectable” FMRP male subjects. RBANS List Learning is a verbal working memory task and raw scores provided indicate number of words remembered, with higher scores indicating more number of words remembered. Group average and standard deviation were obtained cross subjects per treatment type (Placebo/Low dose/High dose) and per visit, which are 1) baseline: before intake, 2) acute: after the first dosage, and 3) chronic: post 2-week daily dosage. Higher scores are clinically better.

[5] = test system: adults with Fragile X Syndrome (FXS); test: ABC-FXS subscales; set-up: scale not given here; details: undetectable FMRP males (n=5), mean ± SD
Description: Tables 11-16 below summarize alternative […] scoring for the FXS patient treated with AZD7325. ABC-FXS was created for use within this population to take into account FXS-specific symptoms, and has six subscales: Irritability, Social Unresponsiveness/Lethargy, Stereotypy, Hyperactivity, Inappropriate Speech, and Social Avoidance.

[6] = test system: adults with Fragile X Syndrome (FXS); test: WJ auditory attention; details: FMRP-present male patients
[7] = subgroup of males (outlier removed), high dose 15 mg twice per day oral
[8] = subgroup of males (outlier removed), low dose 5 mg twice per day oral
[9] = low dose, patients having detectable peripheral FMRP

CCCNC(=O)c1nnc2c(-c3c(F)cccc3OC)cccc2c1N [AZD7325, 4-amino-8-(2-fluoro-6-methoxyphenyl)-N-propylcinnoline-3-carboxamide]
effect of drug on RBANS list learning ([1]; all eligible subjects (p=0.09)): trending effect
RBANS_LL change ([1]; low dose, female detectable FMRP subjects): improves RBANS growth in 2 of the three female detectable subjects
RBANS_LL change ([1]; low dose, male detectable FMRP subjects): bi-directional distributed and overlap with placebo
effect on RBANS list learning ([1]; low dose, subgroup of males following removal of an outlier): significant beneficial effect
RBANS list learning, difference of least squares means, Estimate: Baseline - High [1, 7]: 2.09
RBANS list learning, difference of least squares means, Estimate: Placebo - High [1, 7]: 0.84
RBANS list learning, difference of least squares means, Estimate: Placebo - Low [1, 8]: −4.00
RBANS list learning, difference of least squares means, Estimate: Low - High ([1]; subgroup of males (outlier removed), low dose vs high dose): 4.84
low dose (5 mg BID) versus high dose (15 mg BID) in terms of adverse effects and signal (treatment efficacy) ([2]; human, in vivo): superior over high dose
responsiveness to treatment ([2]; low dose (5 mg twice per day), patients having undetectable peripheral FMRP): responsive; also recorded: showed responsiveness
clinical improvement ([2]; low dose, male patients having undetectable peripheral FMRP): Clinical improvement
responsiveness to treatment [2, 9]: not responsive
ABC lethargy and social withdrawal [3, 9]: increases
ABC lethargy and social withdrawal ([3]; low dose, patients having undetectable peripheral FMRP): reduction; also recorded: reduces
ABC irritability ([3]; low dose, regardless of FMRP status (trending), baseline to chronic): reduction; also recorded: reduces
ABC_C_Subscale_1 Irritability ([3]; high dose, baseline): 7.6 ± 7.44
ABC_C_Subscale_2 Lethargy ([3]; high dose, baseline): 3.2 ± 3.11
ABC_C_Subscale_3 Stereotypy ([3]; high dose, baseline): 5.0 ± 1.87
ABC_C_Subscale_4 Hyperactivity ([3]; high dose, baseline): 9.4 ± 10.74
ABC_C_Subscale_5 Inappropriate Speech ([3]; high dose, baseline): 5.6 ± 4.56
ABC_C_Subscale_1 Irritability ([3]; high dose, chronic): 7.2 ± 5.36
ABC_C_Subscale_2 Lethargy ([3]; high dose, chronic): 1.8 ± 1.48
ABC_C_Subscale_3 Stereotypy ([3]; high dose, chronic): 3.4 ± 0.55
ABC_C_Subscale_4 Hyperactivity ([3]; high dose, chronic): 7.0 ± 9.06
ABC_C_Subscale_5 Inappropriate Speech ([3]; high dose, chronic): 4.4 ± 3.78
ABC_C_Subscale_1 Irritability ([3]; low dose, baseline): 7.6 ± 7.44
ABC_C_Subscale_2 Lethargy ([3]; low dose, baseline): 3.6 ± 2.97
ABC_C_Subscale_3 Stereotypy ([3]; low dose, baseline): 3.8 ± 2.28
ABC_C_Subscale_4 Hyperactivity ([3]; low dose, baseline): 7.8 ± 7.16
ABC_C_Subscale_5 Inappropriate Speech ([3]; low dose, baseline): 5.4 ± 4.16
ABC_C_Subscale_1 Irritability ([3]; low dose, chronic): 7.4 ± 8.02
ABC_C_Subscale_2 Lethargy ([3]; low dose, chronic): 4.6 ± 2.70
ABC_C_Subscale_3 Stereotypy ([3]; low dose, chronic): 4.6 ± 3.05
ABC_C_Subscale_4 Hyperactivity ([3]; low dose, chronic): 7.2 ± 8.07
ABC_C_Subscale_5 Inappropriate Speech ([3]; low dose, chronic): 4.6 ± 3.29
RBANS list learning scores, trend ([4]; all eligible subjects, low dose): might improve
performance on RBANS ([4]; high dose): dose limiting effect
RBANS_LL change ([4]; low dose, chronic, nondetectable FMRP subjects): all positive trended
memory as measured by the RBANS assay ([4]; low dose, males): improved memory
RBANS LL score increase, low dose compared to high dose ([4]; subgroup): e Low dose had greater score increase (benefit) than high dose, separating groups.
RBANS list learning, difference of least squares means, Estimate: Baseline - Low [4, 8]: −2.75
change of RBANS LL from baseline ([4]; subgroup, high dose): c No change from baseline with high dose (direction is toward worsening, −2)
increase (benefit) of RBANS LL compared to placebo ([4]; subgroup, low dose): d Low dose demonstrated increase of nearly 4 (benefit) compared to placebo
increase (benefit) of RBANS LL from baseline ([4]; subgroup, low dose): b Low dose in this subgroup demonstrated an increase (benefit) of +2.75 of RBANS LL from baseline
RBANS-LL score ([4]; high dose, acute (after the first dosage)): 10.4 ± 7.40
RBANS-LL score ([4]; high dose, baseline (before intake)): 14.8 ± 8.32
RBANS-LL score ([4]; high dose, chronic (post 2-week daily dosage)): 12.2 ± 6.83
RBANS-LL score ([4]; low dose, acute (after the first dosage)): 13.2 ± 3.11
RBANS-LL score ([4]; low dose, baseline (before intake)): 10.6 ± 5.22
RBANS-LL score ([4]; low dose, chronic (post 2-week daily dosage)): 14.6 ± 6.80
ABC_FXS_Subscale_1 Irritability ([5]; high dose, baseline): 10.2 ± 10.52
ABC_FXS_Subscale_2 Socially Unresponsive/Lethargic ([5]; high dose, baseline): 1.8 ± 1.92
ABC_FXS_Subscale_3 Stereotypy ([5]; high dose, baseline): 5.0 ± 1.87
ABC_FXS_Subscale_4 Hyperactivity ([5]; high dose, baseline): 6.4 ± 6.80
ABC_FXS_Subscale_5 Inappropriate Speech ([5]; high dose, baseline): 5.6 ± 4.56
ABC_FXS_Subscale_6 Social Avoidance ([5]; high dose, baseline): 1.2 ± 1.79
ABC_FXS_Subscale_1 Irritability ([5]; high dose, chronic): 9.2 ± 7.05
ABC_FXS_Subscale_2 Socially Unresponsive/Lethargic ([5]; high dose, chronic): 1.0 ± 1.22
ABC_FXS_Subscale_3 Stereotypy ([5]; high dose, chronic): 3.4 ± 0.55
ABC_FXS_Subscale_4 Hyperactivity ([5]; high dose, chronic): 4.6 ± 6.31
ABC_FXS_Subscale_5 Inappropriate Speech ([5]; high dose, chronic): 4.4 ± 3.78
ABC_FXS_Subscale_6 Social Avoidance ([5]; high dose, chronic): 0.6 ± 0.89
ABC_FXS_Subscale_1 Irritability ([5]; low dose, baseline): 9.8 ± 8.23
ABC_FXS_Subscale_2 Socially Unresponsive/Lethargic ([5]; low dose, baseline): 2.4 ± 1.52
ABC_FXS_Subscale_3 Stereotypy ([5]; low dose, baseline): 3.8 ± 2.28
ABC_FXS_Subscale_4 Hyperactivity ([5]; low dose, baseline): 4.2 ± 3.77
ABC_FXS_Subscale_5 Inappropriate Speech ([5]; low dose, baseline): 5.4 ± 4.16
ABC_FXS_Subscale_6 Social Avoidance ([5]; low dose, baseline): 2.0 ± 1.87
ABC_FXS_Subscale_1 Irritability ([5]; low dose, chronic): 9.4 ± 9.99
ABC_FXS_Subscale_2 Socially Unresponsive/Lethargic ([5]; low dose, chronic): 2.2 ± 2.39
ABC_FXS_Subscale_3 Stereotypy ([5]; low dose, chronic): 4.6 ± 3.05
ABC_FXS_Subscale_4 Hyperactivity ([5]; low dose, chronic): 4.4 ± 4.98
ABC_FXS_Subscale_5 Inappropriate Speech ([5]; low dose, chronic): 4.6 ± 3.29
ABC_FXS_Subscale_6 Social Avoidance ([5]; low dose, chronic): 2.4 ± 1.82
WJ auditory attention [6]: trending increase

From patent US20230414611A1, “REFINED USES OF GABA A RECEPTOR MODULATORS IN TREATMENT OF FRAGILE X SYNDROME” (CHILDREN'S HOSPITAL MEDICAL CENTER, priority 2020, published 2023)
